Values after ≈ are worked out from the molar mass of the structure shown.
Assays:
Assay type in all cases: functional
Klebsiella oxytoca [1] = experiment: Antimicrobial activity against Klebsiella oxytoca KO279 harboring beta-lactamase OXY-1 by Etest method
Klebsiella oxytoca [2] = experiment: Antimicrobial activity against Klebsiella oxytoca KO280 harboring beta-lactamase OXY-1 by Etest method
Klebsiella oxytoca [3] = experiment: Antimicrobial activity against Klebsiella oxytoca KO281 harboring beta-lactamase OXY-1 and CMY-2 by Etest method
Klebsiella pneumoniae [4] = experiment: Antimicrobial activity against Klebsiella pneumoniae 101A harboring beta-lactamase CMY-2 by Etest method
Klebsiella pneumoniae [5] = experiment: Antimicrobial activity against Klebsiella pneumoniae 278 harboring beta-lactamase OXY-1 by Etest method
Klebsiella pneumoniae [6] = experiment: Antimicrobial activity against Klebsiella pneumoniae 278sp by Etest method
Escherichia coli [7] = experiment: Antimicrobial activity against Escherichia coli DH5alpha by Etest method; details: DH5[alpha]
Escherichia coli [8] = experiment: Antimicrobial activity against Escherichia coli TF-KO279 harboring beta-lactamase OXY-1 by Etest method
Escherichia coli [9] = experiment: Antimicrobial activity against Escherichia coli TF-KO281 harboring beta-lactamase OXY-1 by Etest method
Escherichia coli [10] = experiment: Antimicrobial activity against Escherichia coli TF-KP278 harboring beta-lactamase OXY-1 by Etest method

Which results are given for O=C(O)c1cn(C2CC2)c2cc(N3CCNCC3)c(F)cc2c1=O [CIPROFLOXACIN]?
MIC (Klebsiella oxytoca [1]): 0.38 µg/mL (≈ 1.15 µM); MIC (Klebsiella oxytoca [2]): 0.25 µg/mL (≈ 0.754 µM); MIC (Klebsiella oxytoca [3]): 0.38 µg/mL (≈ 1.15 µM); MIC (Klebsiella pneumoniae [4]): 0.047 µg/mL (≈ 0.142 µM); MIC (Klebsiella pneumoniae [5]): 0.38 µg/mL (≈ 1.15 µM); MIC (Klebsiella pneumoniae [6]): 0.047 µg/mL (≈ 0.142 µM); MIC (Escherichia coli [7]): 0.032 µg/mL (≈ 0.0966 µM)

What does the source list for CO[C@@]1(NC(=O)Cc2cccs2)C(=O)N2C(C(=O)O)=C(COC(N)=O)CS[C@@H]21 [CEFOXITIN]?
MIC (Klebsiella oxytoca [1]): 3 µg/mL (≈ 7.02 µM); MIC (Klebsiella oxytoca [2]): 3 µg/mL (≈ 7.02 µM); MIC (Klebsiella oxytoca [3]): ≥ 256 µg/mL; MIC (Klebsiella pneumoniae [4]): ≥ 256 µg/mL; MIC (Klebsiella pneumoniae [5]): 4 µg/mL (≈ 9.36 µM); MIC (Klebsiella pneumoniae [6]): 4 µg/mL (≈ 9.36 µM); MIC (Escherichia coli [8]): 2 µg/mL (≈ 4.68 µM); MIC (Escherichia coli [9]): 2 µg/mL (≈ 4.68 µM); MIC (Escherichia coli [10]): 2 µg/mL (≈ 4.68 µM); MIC (Escherichia coli [7]): 2 µg/mL (≈ 4.68 µM)

What does the source list for CO/N=C(\C(=O)N[C@@H]1C(=O)N2C(C(=O)O)=C(COC(C)=O)CS[C@H]12)c1csc(N)n1 [CEFOTAXIME]?
MIC (Klebsiella oxytoca [1]): 1.5 µg/mL (≈ 3.29 µM); MIC (Klebsiella oxytoca [2]): 1.5 µg/mL (≈ 3.29 µM); MIC (Klebsiella oxytoca [3]): 16 µg/mL (≈ 35.1 µM); MIC (Klebsiella pneumoniae [4]): 6 µg/mL (≈ 13.2 µM); MIC (Klebsiella pneumoniae [5]): 1 µg/mL (≈ 2.2 µM); MIC (Klebsiella pneumoniae [6]): 0.047 µg/mL (≈ 0.103 µM); MIC (Escherichia coli [8]): 0.25 µg/mL (≈ 0.549 µM); MIC (Escherichia coli [9]): 0.38 µg/mL (≈ 0.834 µM); MIC (Escherichia coli [10]): 0.25 µg/mL (≈ 0.549 µM); MIC (Escherichia coli [7]): 0.023 µg/mL (≈ 0.0505 µM)

How did the MIC (Klebsiella oxytoca [1]) turn out when CC(C)(O/N=C(\C(=O)N[C@@H]1C(=O)N2C(C(=O)[O-])=C(C[n+]3ccccc3)CS[C@H]12)c1csc(N)n1)C(=O)O [CEFTAZIDIME] was run?
Its MIC is 4 µg/mL (≈ 7.32 µM).

What about the MIC (Klebsiella oxytoca [2]) of the same compound?
Its MIC is 4 µg/mL (≈ 7.32 µM).

What about the MIC (Klebsiella oxytoca [3]) of the same compound?
The MIC was at least 256 µg/mL.

And the MIC (Klebsiella pneumoniae [4])?
Its MIC is 64 µg/mL (≈ 117 µM).

What about the MIC (Klebsiella pneumoniae [5]) of the same compound?
The MIC was 1.5 µg/mL (≈ 2.74 µM).

What about the MIC (Klebsiella pneumoniae [6]) of the same compound?
Its MIC is 1 µg/mL (≈ 1.83 µM).

And the MIC (Escherichia coli [8])?
The MIC was 0.75 µg/mL (≈ 1.37 µM).

And the MIC (Escherichia coli [9])?
Its MIC is 1 µg/mL (≈ 1.83 µM).

And the MIC (Escherichia coli [10])?
The MIC was 0.75 µg/mL (≈ 1.37 µM).

What about the MIC (Escherichia coli [7]) of the same compound?
Its MIC is 0.25 µg/mL (≈ 0.457 µM).

Which results are given for CCn1cc(C(=O)O)c(=O)c2cc(F)c(N3CCNCC3)cc21 [NORFLOXACIN]?
MIC (Klebsiella oxytoca [1]): 1.5 µg/mL (≈ 4.7 µM); MIC (Klebsiella oxytoca [2]): 1 µg/mL (≈ 3.13 µM); MIC (Klebsiella oxytoca [3]): 1.5 µg/mL (≈ 4.7 µM); MIC (Klebsiella pneumoniae [4]): 0.125 µg/mL (≈ 0.391 µM); MIC (Klebsiella pneumoniae [5]): 1 µg/mL (≈ 3.13 µM); MIC (Klebsiella pneumoniae [6]): 0.125 µg/mL (≈ 0.391 µM); MIC (Escherichia coli [8]): 0.5 µg/mL (≈ 1.57 µM); MIC (Escherichia coli [9]): 0.5 µg/mL (≈ 1.57 µM); MIC (Escherichia coli [10]): 0.38 µg/mL (≈ 1.19 µM); MIC (Escherichia coli [7]): 0.094 µg/mL (≈ 0.294 µM)

With C[C@H]1[C@H](NC(=O)/C(=N\OC(C)(C)C(=O)O)c2csc(N)n2)C(=O)N1S(=O)(=O)O [AZTREONAM] as the compound, how does the MIC (Klebsiella oxytoca [1]) read?
The MIC was at least 256 µg/mL.

What about the MIC (Klebsiella oxytoca [2]) of the same compound?
Its MIC is at least 256 µg/mL.

What about the MIC (Klebsiella oxytoca [3]) of the same compound?
Its MIC is at least 256 µg/mL.

And the MIC (Klebsiella pneumoniae [4])?
Its MIC is 6 µg/mL (≈ 13.8 µM).

And the MIC (Klebsiella pneumoniae [5])?
Its MIC is 32 µg/mL (≈ 73.5 µM).

What about the MIC (Klebsiella pneumoniae [6]) of the same compound?
Its MIC is 0.064 µg/mL (≈ 0.147 µM).

What about the MIC (Escherichia coli [8]) of the same compound?
Its MIC is 64 µg/mL (≈ 147 µM).

And the MIC (Escherichia coli [9])?
Its MIC is 128 µg/mL (≈ 294 µM).

What about the MIC (Escherichia coli [10]) of the same compound?
Its MIC is 64 µg/mL (≈ 147 µM).

And the MIC (Escherichia coli [7])?
Its MIC is 0.023 µg/mL (≈ 0.0528 µM).

Which MIC (Klebsiella oxytoca [1]) does the source give for C[C@@H](O)[C@H]1C(=O)N2C(C(=O)O)=C(SCCNC=N)C[C@H]12 [IMIPENEM ANHYDROUS] here?
The MIC was 0.25 µg/mL (≈ 0.835 µM).

And the MIC (Klebsiella oxytoca [2])?
Its MIC is 0.25 µg/mL (≈ 0.835 µM).

And the MIC (Klebsiella oxytoca [3])?
Its MIC is 0.25 µg/mL (≈ 0.835 µM).

And the MIC (Klebsiella pneumoniae [4])?
Its MIC is 0.38 µg/mL (≈ 1.27 µM).

What about the MIC (Klebsiella pneumoniae [5]) of the same compound?
Its MIC is 0.25 µg/mL (≈ 0.835 µM).

And the MIC (Klebsiella pneumoniae [6])?
The MIC was 0.25 µg/mL (≈ 0.835 µM).

And the MIC (Escherichia coli [8])?
The MIC was 0.19 µg/mL (≈ 0.635 µM).

And the MIC (Escherichia coli [9])?
Its MIC is 0.19 µg/mL (≈ 0.635 µM).

What about the MIC (Escherichia coli [10]) of the same compound?
Its MIC is 0.19 µg/mL (≈ 0.635 µM).

What about the MIC (Escherichia coli [7]) of the same compound?
The MIC was 0.19 µg/mL (≈ 0.635 µM).

Which results are given for CO/N=C(\C(=O)N[C@@H]1C(=O)N2C(C(=O)[O-])=C(C[N+]3(C)CCCC3)CS[C@H]12)c1csc(N)n1 [CEFEPIME]?
MIC (Klebsiella oxytoca [1]): 1.5 µg/mL (≈ 3.12 µM); MIC (Klebsiella oxytoca [2]): 1.5 µg/mL (≈ 3.12 µM); MIC (Klebsiella oxytoca [3]): 1.5 µg/mL (≈ 3.12 µM); MIC (Klebsiella pneumoniae [4]): 0.5 µg/mL (≈ 1.04 µM); MIC (Klebsiella pneumoniae [5]): 1 µg/mL (≈ 2.08 µM); MIC (Klebsiella pneumoniae [6]): 0.19 µg/mL (≈ 0.395 µM); MIC (Escherichia coli [9]): 0.38 µg/mL (≈ 0.791 µM); MIC (Escherichia coli [7]): 0.032 µg/mL (≈ 0.0666 µM)

What does the source list for CC1(C)S[C@@H]2[C@H](NC(=O)[C@H](N)c3ccccc3)C(=O)N2[C@H]1C(=O)O [AMPICILLIN]?
MIC (Klebsiella oxytoca [1]): ≥ 256 µg/mL; MIC (Klebsiella oxytoca [2]): ≥ 256 µg/mL; MIC (Klebsiella oxytoca [3]): ≥ 256 µg/mL; MIC (Klebsiella pneumoniae [4]): ≥ 256 µg/mL; MIC (Klebsiella pneumoniae [5]): ≥ 256 µg/mL; MIC (Klebsiella pneumoniae [6]): 96 µg/mL (≈ 275 µM); MIC (Escherichia coli [8]): ≥ 256 µg/mL; MIC (Escherichia coli [9]): ≥ 256 µg/mL; MIC (Escherichia coli [10]): ≥ 256 µg/mL; MIC (Escherichia coli [7]): 4 µg/mL (≈ 11.4 µM)
